Biological target: Neuronal acetylcholine receptor subunit alpha-7 (Rattus norvegicus, UniProt Q05941)
Experiment: Binding Assay: Rat brain tissue (hippocampus or whole brain) is homogenized in homogenization buffer (10% w/v). [0.32 M sucrose, 1 mM EDTA; 0.1 mM phenylmethylsulfonyl fluoride (PMSF), 0.01% (w/v) NaN3, pH 7.4, 4 C.] at 600 rpm in a glass homogenizer. The homogenate is centrifuged (1000xg, 4 C., 10 min) and the supernatant is removed. The pellet is resuspended (20% w/v) and the suspension is centrifuged (1000xg, 4 C., 10 mM). The two supernatants are combined and centrifuged (15 000xg, 4 C., 30 min). The pellet obtained in this way is referred to as the P2 fraction.The P2 pellet is washed twice with binding buffer (50 mM Tris-HCl, 1 mM MgCl2, 120 mM NaCl, 5 mM KCl, 2 mM CaCl2, pH 7.4), and centrifuged (15 000xg, 4 C., 30 min).The P2 membranes are resuspended in binding buffer and incubated in a volume of 250 ul (amount of membrane protein 0.1-0.5 mg) in the presence of 1-5 nM [3H]methyllycaconitine, 0.1% (w/v) BSA (bovine serum albumin) and various concentrations of the test substance.
Format: tissue-based

Sequence of Neuronal acetylcholine receptor subunit alpha-7 (Q05941 whole entry): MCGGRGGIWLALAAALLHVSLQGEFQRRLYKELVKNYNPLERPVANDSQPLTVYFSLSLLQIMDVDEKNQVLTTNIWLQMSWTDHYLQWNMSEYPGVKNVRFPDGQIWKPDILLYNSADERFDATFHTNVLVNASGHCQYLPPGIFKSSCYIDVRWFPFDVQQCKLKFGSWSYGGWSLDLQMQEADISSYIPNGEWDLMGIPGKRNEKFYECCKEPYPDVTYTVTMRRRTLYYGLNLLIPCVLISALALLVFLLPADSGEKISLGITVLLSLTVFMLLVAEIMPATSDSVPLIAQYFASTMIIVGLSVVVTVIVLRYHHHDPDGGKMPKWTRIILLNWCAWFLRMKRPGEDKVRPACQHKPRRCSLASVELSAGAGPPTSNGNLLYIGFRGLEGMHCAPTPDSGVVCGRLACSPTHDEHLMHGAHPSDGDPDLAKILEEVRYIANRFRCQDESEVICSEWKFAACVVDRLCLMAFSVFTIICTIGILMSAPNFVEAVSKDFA

O=C(CC1CN2CCC1CC2)Nc1cc2ccc(Br)cc2s1 (stereo unspecified)
Ki: 200 nM
